Experimental data from ChEMBL document CHEMBL1201862, “PubChem BioAssay data set” (2004).
Activity calls are given as the source filed them.

Assays:
[1] = target: T1, Sentrin-specific protease 8 (Homo sapiens, UniProt Q96LD8); format: functional
T1 sequence (Q96LD8 whole entry): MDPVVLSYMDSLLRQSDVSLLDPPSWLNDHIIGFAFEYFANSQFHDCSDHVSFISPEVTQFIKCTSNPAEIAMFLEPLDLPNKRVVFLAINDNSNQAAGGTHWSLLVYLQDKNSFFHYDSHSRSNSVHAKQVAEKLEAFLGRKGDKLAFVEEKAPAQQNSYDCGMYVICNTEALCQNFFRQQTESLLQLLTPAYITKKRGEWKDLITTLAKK

[2] = target: T1, Sentrin-specific protease 8; format: functional; remark: listed apart in the source
[3] = target: Serine/threonine-protein phosphatase (Homo sapiens, UniProt Q9BPW0); experiment: PP5 phosphatase inhibitors, dose response, biochemical, fluorescence (AID 2395)
[4] = inhibitors of firefly luciferase expression or activity, dose response, H4 neuroglioma cells, luminescence (AID 1990); format: functional, cell-based
Streptococcus = experiment: Group A Streptococcus viability loss, dose response, counter-screen for streptokinase expression inhibitor project, luminescence, BacTiterGlo (AID 1915); format: functional, organism-based;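 note: potency for reduction of bacterial viability or growth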
INS1 = experiment: beta cell apoptosis inhibitors, cytokine rescue, dose response, luminescence, retest (AID 449756); format: functional, cell-based; details: Rattus norvegicus;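 note: cell death triggered by IL-1 beta plus TNF-alpha plus IFN-gamma mixture; protective hits raise ATP signal compared with cytokine alone wells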
[5] = tested on: Streptococcus sp. 'group A'; experiment: growth inhibition of control SK(-) GAS strain, dose response, counter-screen for streptokinase expression inhibitor project, luminescence, kanamycin, BacTiterGlo, confirmation (AID 1900); format: functional, organism-based
[6] = target: Dual specificity tyrosine-phosphorylation-regulated kinase 1A (Rattus norvegicus, UniProt Q63470); format: biochemical, Homo sapiens
[7] = target: T2, Long-chain-fatty-acid--AMP ligase FadD28 (Mycobacterium tuberculosis, UniProt P9WQ59); experiment: Fluorescence polarization aasay to screen for inhibitors that compete for the binding of FadD28 to a bisubstrate Measured in Biochemical System Using Plate Reader - 2147-01_Inhibitor_Dose_CherryPick_Activity.; format: functional, Mycobacterium tuberculosis H37Rv
T2 sequence (P9WQ59 whole entry): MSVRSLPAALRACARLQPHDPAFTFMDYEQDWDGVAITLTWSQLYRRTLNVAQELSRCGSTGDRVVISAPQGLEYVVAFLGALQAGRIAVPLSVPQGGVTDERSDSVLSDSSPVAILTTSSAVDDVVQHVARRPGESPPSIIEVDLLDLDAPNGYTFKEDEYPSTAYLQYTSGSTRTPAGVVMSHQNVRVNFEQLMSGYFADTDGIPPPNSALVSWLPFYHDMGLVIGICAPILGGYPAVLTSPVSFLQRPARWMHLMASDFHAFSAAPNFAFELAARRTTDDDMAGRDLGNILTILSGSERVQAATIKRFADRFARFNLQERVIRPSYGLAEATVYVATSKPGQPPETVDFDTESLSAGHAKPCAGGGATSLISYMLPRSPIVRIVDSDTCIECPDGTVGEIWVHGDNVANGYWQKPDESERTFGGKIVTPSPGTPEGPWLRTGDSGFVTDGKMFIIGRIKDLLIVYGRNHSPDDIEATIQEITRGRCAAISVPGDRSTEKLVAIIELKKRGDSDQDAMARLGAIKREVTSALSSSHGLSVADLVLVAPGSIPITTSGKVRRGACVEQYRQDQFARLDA

Genome polyprotein = Genome polyprotein (dengue virus type 2, UniProt P29990); experiment: Dengue-2 NS5 methyltransferase inhibitors, primary screen, biochemical, confirmation dose response (AID 588689); format: functional
SUMO-activating enzyme = SUMO-activating enzyme (Homo sapiens, UniProt Q9UBT2); experiment: inhibitors of in vitro SUMOylation cascade, primary screen, biochemical, HTRF, uHTS (AID 2006); format: protein-complex assay
Hexokinase HKDC1 = target: T3, Hexokinase HKDC1 (Homo sapiens, UniProt Q2TB90); experiment: HKDC1 hexokinase inhibitors, dose response, biochemical, W721R variant (AID 504729); format: functional
T3 sequence (Q2TB90 whole entry): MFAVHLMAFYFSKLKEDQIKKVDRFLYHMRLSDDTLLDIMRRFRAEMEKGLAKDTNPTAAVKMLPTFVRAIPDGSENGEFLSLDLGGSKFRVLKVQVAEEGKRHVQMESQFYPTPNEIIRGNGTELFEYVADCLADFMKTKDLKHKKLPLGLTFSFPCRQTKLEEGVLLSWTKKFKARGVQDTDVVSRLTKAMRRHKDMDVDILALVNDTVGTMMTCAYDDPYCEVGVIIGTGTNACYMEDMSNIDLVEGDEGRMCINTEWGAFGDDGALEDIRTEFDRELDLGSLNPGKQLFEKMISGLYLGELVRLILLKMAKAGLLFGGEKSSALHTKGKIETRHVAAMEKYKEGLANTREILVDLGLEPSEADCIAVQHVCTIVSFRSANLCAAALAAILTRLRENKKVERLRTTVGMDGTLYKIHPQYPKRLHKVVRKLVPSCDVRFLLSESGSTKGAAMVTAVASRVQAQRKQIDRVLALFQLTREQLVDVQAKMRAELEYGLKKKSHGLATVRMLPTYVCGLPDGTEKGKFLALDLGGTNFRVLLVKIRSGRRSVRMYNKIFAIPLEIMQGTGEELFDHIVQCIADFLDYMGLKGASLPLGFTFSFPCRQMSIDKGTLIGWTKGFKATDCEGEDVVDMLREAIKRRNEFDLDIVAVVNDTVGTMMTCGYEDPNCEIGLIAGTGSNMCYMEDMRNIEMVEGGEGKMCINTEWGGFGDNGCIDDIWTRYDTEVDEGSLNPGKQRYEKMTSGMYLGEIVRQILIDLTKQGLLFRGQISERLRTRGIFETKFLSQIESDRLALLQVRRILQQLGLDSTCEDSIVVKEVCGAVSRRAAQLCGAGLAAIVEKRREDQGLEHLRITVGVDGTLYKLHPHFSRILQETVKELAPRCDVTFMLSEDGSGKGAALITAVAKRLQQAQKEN

[8] = target: T4, Heat shock factor protein 1 (Mus musculus, UniProt P38532); experiment: HSF1 potentiators in luciferase reporter cells, confirmation, cell-based, NIH3T3, luminescence, dose retest (AID 435004); format: functional;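 note: stress induced by proteasome inhibitor MG132 added 30 min after compound; luciferase reporter driven by HSF1 response element in NIH3T3 cells; actives raise luminescence as potentiators of the MG132 stress response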
T4 sequence (P38532 whole entry): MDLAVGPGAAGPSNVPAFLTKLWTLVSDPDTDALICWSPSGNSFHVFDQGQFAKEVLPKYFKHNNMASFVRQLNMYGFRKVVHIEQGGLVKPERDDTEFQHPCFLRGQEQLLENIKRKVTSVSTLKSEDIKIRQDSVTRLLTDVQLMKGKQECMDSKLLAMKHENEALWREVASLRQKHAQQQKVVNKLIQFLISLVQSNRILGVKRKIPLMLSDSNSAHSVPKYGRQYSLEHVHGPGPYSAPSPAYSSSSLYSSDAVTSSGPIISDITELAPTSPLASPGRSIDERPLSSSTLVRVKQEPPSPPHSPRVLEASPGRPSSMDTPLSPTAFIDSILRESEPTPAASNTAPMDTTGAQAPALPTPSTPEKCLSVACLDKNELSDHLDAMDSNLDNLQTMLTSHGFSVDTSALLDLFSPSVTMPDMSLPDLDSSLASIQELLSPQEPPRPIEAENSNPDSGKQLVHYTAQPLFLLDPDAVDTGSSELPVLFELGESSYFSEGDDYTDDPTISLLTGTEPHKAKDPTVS

SUMO-activating enzyme, sequence (Q9UBE0 whole entry): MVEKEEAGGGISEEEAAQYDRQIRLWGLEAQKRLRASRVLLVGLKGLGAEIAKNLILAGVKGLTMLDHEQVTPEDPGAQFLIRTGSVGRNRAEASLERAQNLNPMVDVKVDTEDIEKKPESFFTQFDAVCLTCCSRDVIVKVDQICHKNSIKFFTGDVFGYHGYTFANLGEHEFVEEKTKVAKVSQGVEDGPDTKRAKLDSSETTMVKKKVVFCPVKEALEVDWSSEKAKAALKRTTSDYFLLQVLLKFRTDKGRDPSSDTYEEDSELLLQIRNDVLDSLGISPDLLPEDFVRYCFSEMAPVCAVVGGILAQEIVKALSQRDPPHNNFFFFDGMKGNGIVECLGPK
SUMO-activating enzyme, sequence (Q9UBT2 whole entry): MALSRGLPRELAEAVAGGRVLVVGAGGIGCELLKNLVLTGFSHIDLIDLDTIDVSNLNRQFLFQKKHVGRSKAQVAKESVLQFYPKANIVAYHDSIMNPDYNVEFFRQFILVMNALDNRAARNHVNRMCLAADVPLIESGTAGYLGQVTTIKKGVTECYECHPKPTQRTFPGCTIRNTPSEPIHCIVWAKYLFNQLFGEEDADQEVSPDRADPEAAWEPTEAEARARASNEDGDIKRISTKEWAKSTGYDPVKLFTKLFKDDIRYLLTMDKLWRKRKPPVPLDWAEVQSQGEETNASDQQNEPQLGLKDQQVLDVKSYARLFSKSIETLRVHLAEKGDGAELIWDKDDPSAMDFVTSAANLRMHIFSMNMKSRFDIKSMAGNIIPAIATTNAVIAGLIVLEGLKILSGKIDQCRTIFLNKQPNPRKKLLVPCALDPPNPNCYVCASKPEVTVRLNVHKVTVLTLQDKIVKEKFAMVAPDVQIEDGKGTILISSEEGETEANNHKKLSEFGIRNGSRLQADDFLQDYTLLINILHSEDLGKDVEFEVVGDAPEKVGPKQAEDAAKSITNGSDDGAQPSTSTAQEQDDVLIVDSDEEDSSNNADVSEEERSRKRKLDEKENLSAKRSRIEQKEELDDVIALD
Genome polyprotein, sequence (P29990 2492-3391 limits assumed): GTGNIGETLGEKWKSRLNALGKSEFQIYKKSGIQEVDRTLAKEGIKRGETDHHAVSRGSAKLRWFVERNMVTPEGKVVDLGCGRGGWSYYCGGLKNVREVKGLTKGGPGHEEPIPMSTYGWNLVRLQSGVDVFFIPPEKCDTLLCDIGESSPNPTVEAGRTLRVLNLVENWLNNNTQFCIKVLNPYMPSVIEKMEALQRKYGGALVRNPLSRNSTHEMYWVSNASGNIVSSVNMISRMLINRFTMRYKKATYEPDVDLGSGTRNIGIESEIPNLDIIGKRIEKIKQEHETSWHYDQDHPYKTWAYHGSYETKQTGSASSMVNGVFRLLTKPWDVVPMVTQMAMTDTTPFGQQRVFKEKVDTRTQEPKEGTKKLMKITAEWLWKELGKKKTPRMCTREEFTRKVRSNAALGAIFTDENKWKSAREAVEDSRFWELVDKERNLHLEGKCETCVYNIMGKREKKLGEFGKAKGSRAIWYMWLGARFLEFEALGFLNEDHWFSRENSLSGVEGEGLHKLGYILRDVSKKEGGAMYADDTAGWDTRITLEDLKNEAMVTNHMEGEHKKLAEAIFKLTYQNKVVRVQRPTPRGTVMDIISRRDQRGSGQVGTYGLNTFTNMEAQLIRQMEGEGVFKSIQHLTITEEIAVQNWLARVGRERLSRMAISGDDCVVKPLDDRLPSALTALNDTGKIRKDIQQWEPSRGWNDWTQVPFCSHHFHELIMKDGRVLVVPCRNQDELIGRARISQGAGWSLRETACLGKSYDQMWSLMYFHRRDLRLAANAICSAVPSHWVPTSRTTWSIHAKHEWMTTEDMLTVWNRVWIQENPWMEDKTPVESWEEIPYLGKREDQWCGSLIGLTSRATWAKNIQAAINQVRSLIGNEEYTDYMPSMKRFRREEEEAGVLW
Serine/threonine-protein phosphatase, sequence (Q9BPW0 whole entry): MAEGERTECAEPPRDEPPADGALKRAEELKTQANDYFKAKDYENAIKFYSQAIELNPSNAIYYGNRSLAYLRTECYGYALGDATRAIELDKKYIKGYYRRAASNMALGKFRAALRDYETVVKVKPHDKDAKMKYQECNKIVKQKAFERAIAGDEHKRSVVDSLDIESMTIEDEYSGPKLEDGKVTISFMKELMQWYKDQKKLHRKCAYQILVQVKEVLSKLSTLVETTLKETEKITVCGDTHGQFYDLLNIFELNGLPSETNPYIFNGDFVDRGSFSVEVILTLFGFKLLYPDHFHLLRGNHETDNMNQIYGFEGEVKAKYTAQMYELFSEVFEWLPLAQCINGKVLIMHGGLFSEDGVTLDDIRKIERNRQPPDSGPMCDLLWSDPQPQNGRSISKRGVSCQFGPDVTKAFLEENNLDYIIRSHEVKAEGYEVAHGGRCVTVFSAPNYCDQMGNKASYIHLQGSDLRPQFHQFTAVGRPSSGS

Question: For `COc1ccc(NC(=S)Nc2ccc3nsnc3c2)cc1`, which IC50 [1] is on record?
Answer: Its IC50 is 2.3 µM (active).

Question: And the IC50 [2]?
Answer: Its IC50 is 6.61 µM (active).

Question: And the IC50 [3]?
Answer: Its IC50 is > 2.48 µM (active).

Question: With `CC(C)(C)c1cc[n+](C2=C([N-]S(=O)(=O)c3ccccc3)C(=O)c3ccccc3C2=O)cc1` as the compound, how does the EC50 [4] read?
Answer: The EC50 was > 120 µM (not active).

Question: What about the EC50 (Streptococcus) of the same compound?
Answer: Its EC50 is 5.15 µM (active).

Question: And the AC50 (INS1)?
Answer: Its AC50 is 14.5 µM (active).

Question: And the EC50 [5]?
Answer: The EC50 was 4.89 µM (active).

Question: For `O=C1C=C(Nc2ccccc2C(=O)O)c2ccccc2C1=O`, which AC50 [6] is on record?
Answer: Its AC50 is 6.25 µM (active).

Question: And the AC50 [7]?
Answer: Its AC50 is > 100 µM (inactive).

Question: What about the IC50 (Genome polyprotein) of the same compound?
Answer: The IC50 was > 100 µM (active).

Question: And the IC50 (SUMO-activating enzyme)?
Answer: Its IC50 is 19.8 µM (active).

Question: What about the IC50 (Hexokinase HKDC1) of the same compound?
Answer: Its IC50 is 12.4 µM (active).

Question: And the EC50 [8]?
Answer: Its EC50 is 133 µM (active).
